Reference: patent publication US9447438B2, “Acetyl-coA carboxylases” (OPX Biotechnologies, Inc., priority 2013, dated 2016)

How the values were obtained:
E. coli ACCase = E. coli ACCase (Escherichia coli, UniProt P0A9Q5+P0ABD5+P0ABD8+P24182); conditions: FIG. 4; for effect of salt on E. coli ACCase activity: compared to H. elongata ACCase; for decrease of the activity of the ACCase enzyme relative to control: salt levels near 0.44M
Experimental: Levels of greater than 0.66M (60 g/L) are expected to be present for commercially viable commercial production of 3-HP.
Each gene was amplified by PCRs with Pfu Ultra II HS using the manufacturer's instructions, and the PCR products were purified using the Zymo PCR Cleanup kit. Concentrations of products were measured using the Nanodrop spectophotometer. The Gibson Assembly kit (NEB) was used to construct plasmids expressing the ACCase subunit genes as directed by the manufacturer. The effect of NH4-3-HP and NH4Cl on H. elongata ACCase was tested and compared to the E. coli ACCase.

H. elongata ACCase = assay: Effect of NH4-3-HP and NH4Cl on H. elongata ACCase; type: biochemical, Halomonas elongata; conditions: FIG. 4; compared to E. coli ACCase
Experimental: Concentrations of products were measured using the Nanodrop spectophotometer.

E. coli ACCase, sequence (P0A9Q5 whole entry): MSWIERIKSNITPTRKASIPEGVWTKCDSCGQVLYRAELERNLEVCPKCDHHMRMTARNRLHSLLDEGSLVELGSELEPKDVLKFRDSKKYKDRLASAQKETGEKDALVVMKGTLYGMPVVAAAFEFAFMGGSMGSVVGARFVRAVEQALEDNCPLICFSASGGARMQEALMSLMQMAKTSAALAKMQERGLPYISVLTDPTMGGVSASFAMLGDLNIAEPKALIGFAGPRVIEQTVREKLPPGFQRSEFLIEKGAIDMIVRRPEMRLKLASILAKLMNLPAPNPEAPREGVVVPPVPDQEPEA
E. coli ACCase, sequence (P0ABD5 whole entry): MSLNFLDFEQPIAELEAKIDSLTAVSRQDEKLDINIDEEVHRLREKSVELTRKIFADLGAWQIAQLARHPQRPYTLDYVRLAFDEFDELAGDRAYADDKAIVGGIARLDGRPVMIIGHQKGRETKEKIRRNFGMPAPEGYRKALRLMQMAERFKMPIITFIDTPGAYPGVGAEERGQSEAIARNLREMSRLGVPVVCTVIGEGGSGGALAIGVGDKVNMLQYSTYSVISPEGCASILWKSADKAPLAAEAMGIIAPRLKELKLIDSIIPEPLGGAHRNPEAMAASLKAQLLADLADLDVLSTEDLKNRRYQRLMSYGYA

SMILES | effect of salt on E. coli ACCase activity (E. coli ACCase) | decrease of the activity of the ACCase enzyme relative to control (E. coli ACCase) | effect of salt on H. elongata ACCase activity (H. elongata ACCase)
Cl.N [NH4Cl] | significantly inhibited | approximately 80% | less affected
N.O=C(O)CCO [NH4-3-HP] | significantly inhibited | – | less affected
[Cl-].[Na+] [NaCl] | – | approximately 80% | –
